This is an account of results in PubChem BioAssay (NCI).

Among the test systems are OVCAR-4 ovarian; UACC-257 melanoma; CCRF-CEM leukemia; K-562 leukemia; RPMI-8226 leukemia; NCI-H522 lung; CAKI-1 renal; T-47D breast.
Common to all, as to test: inhibition of tumour cell growth, NCI panel, 48 h

Structures are written as SMILES. Values joined by “and” are separate entries in the source; they are usually repeats but may differ in a detail not shown here. Equal entries are not always repeated.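 48-hour exposure; five concentrations; linearly interpolated endpoints. The concentration for 50% growth inhibition is given as GI50. The concentration for full growth arrest is given as TGI.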 Some results are limits rather than exact numbers.

Turning to `COc1ccc2c(c1)C(=O)C(=O)c1cc(O)c(OC)c(OC)c1-2`, the GI50 in the experiment with OVCAR-4 ovarian was 1.56 µM; in the experiment on UACC-257 melanoma, 1.55 µM; in the experiment with CCRF-CEM leukemia, 0.451 µM; in the experiment with RPMI-8226 leukemia, 1.56 µM; in the experiment on NCI-H522 lung, 1.92 µM; with CAKI-1 renal it was 1.77 µM. Besides, the GI50 with T-47D breast is 1.75 µM. Besides, the TGI in the experiment with OVCAR-4 ovarian is 1.59 µM and 2.9 µM; in the experiment on UACC-257 melanoma, 1.61 µM and 2.89 µM; in the experiment with CCRF-CEM leukemia, 2.65 µM and 2.92 µM; in the experiment on K-562 leukemia, 3.01 µM; in the experiment on RPMI-8226 leukemia, 2.67 µM and 3.81 µM; in the experiment with NCI-H522 lung, 1.74 µM and 3.55 µM. In addition, the TGI was 1.67 µM and 3.15 µM in the experiment with CAKI-1 renal; 2.81 µM and 3.13 µM with T-47D breast.

In the case of `CC1CCN(CCCCCOc2ccc3oc4cc(Cl)ccc4c(=O)c3c2)CC1`, the GI50 with OVCAR-4 ovarian was 6.22 µM; with UACC-257 melanoma, 1.33 µM; with CCRF-CEM leukemia it was 5.76 µM; with K-562 leukemia, 1.58 µM; in the experiment with RPMI-8226 leukemia, 5.73 µM; with NCI-H522 lung, 9.09 µM. The GI50 in the experiment with T-47D breast is 6.86 µM. The TGI in the experiment with OVCAR-4 ovarian was determined as 13.6 µM; with UACC-257 melanoma it was 3.22 µM; in the experiment with CCRF-CEM leukemia it was 14.2 µM; in the experiment on K-562 leukemia, 6.09 µM; in the experiment on RPMI-8226 leukemia, 15.9 µM; in the experiment with NCI-H522 lung, 18 µM. The TGI in the experiment on T-47D breast was 16.4 µM.

In the case of `CN1CCN(c2ccc3nc(-c4c(N)c5c(F)cccc5[nH]c4=O)[nH]c3c2)CC1`, the GI50 in the experiment with OVCAR-4 ovarian was 0.622 µM and 0.498 µM and 0.646 µM; in the experiment on UACC-257 melanoma, 1.69 µM and 0.83 µM and 2.54 µM; in the experiment with CCRF-CEM leukemia it was 0.834 µM and 0.684 µM and 1.01 µM; with K-562 leukemia, 0.598 µM and 0.528 µM and 0.932 µM; in the experiment on RPMI-8226 leukemia it was 1.17 µM and 0.909 µM and 1.57 µM; with NCI-H522 lung, 0.999 µM and 0.398 µM and 2.29 µM. The GI50 is 0.213 µM and 0.282 µM and 0.387 µM in the experiment on CAKI-1 renal; 4.04 µM and 12 µM with T-47D breast. The TGI is 4.55 µM and > 10 µM and 10.9 µM in the experiment on OVCAR-4 ovarian; 3.26 µM and 2.39 µM and 8.32 µM in the experiment with UACC-257 melanoma; 7.93 µM and > 5.89 µM and 9.41 µM in the experiment with CCRF-CEM leukemia; 2.62 µM and 2.32 µM and 4.91 µM in the experiment on K-562 leukemia; 3.74 µM and > 2.77 µM and 4.53 µM in the experiment on RPMI-8226 leukemia; 2.87 µM and > 2.3 µM and 11.7 µM in the experiment with NCI-H522 lung. The TGI in the experiment on CAKI-1 renal is 1.57 µM and > 10 µM and 12.5 µM; in the experiment with T-47D breast, 10.1 µM and > 6.23 µM and 31.9 µM.

Take `C=CC(C=O)C1(O)CCOC(=O)/C1=C\N` (stereo not given): the GI50 in the experiment on UACC-257 melanoma, in the experiment on CCRF-CEM leukemia, with K-562 leukemia, with RPMI-8226 leukemia, in the experiment with NCI-H522 lung and with CAKI-1 renal was over 100 µM throughout. Moreover, the GI50 with T-47D breast was over 100 µM. Further, the TGI with UACC-257 melanoma, in the experiment with CCRF-CEM leukemia, with K-562 leukemia, in the experiment with RPMI-8226 leukemia, in the experiment with NCI-H522 lung and with CAKI-1 renal was over 100 µM each time. Besides, the TGI with T-47D breast was over 100 µM.

In the case of `C/C(=C\C1=C(Cl)C(=O)c2ccccc2C1=O)C(=O)O`, the GI50 with OVCAR-4 ovarian was 19.9 µM; in the experiment on CCRF-CEM leukemia, 21.8 µM; in the experiment with K-562 leukemia, 23.1 µM; in the experiment on RPMI-8226 leukemia, 20.2 µM; in the experiment on NCI-H522 lung, 11.9 µM; with CAKI-1 renal it was 22.1 µM. For the same compound, the GI50 with T-47D breast was 15.3 µM. For the same compound, the TGI with OVCAR-4 ovarian amounted to 36.3 µM; with CCRF-CEM leukemia, 46.2 µM; in the experiment with K-562 leukemia it was 54.9 µM; with RPMI-8226 leukemia, 46.5 µM; with NCI-H522 lung, 26.9 µM; in the experiment on CAKI-1 renal, 36.6 µM. In the experiment on T-47D breast, this compound returned a TGI of 48.7 µM.

As for `CCN1C(NN)=NS(=O)(=O)c2ccccc21`, the TGI in the experiment on OVCAR-4 ovarian, with UACC-257 melanoma, in the experiment with CCRF-CEM leukemia, with K-562 leukemia, in the experiment on NCI-H522 lung and with CAKI-1 renal was over 100 µM each time. For the same compound, the TGI with T-47D breast is over 100 µM.

For the compound `COc1cccc2c1-c1c(c3ccc([N+](=O)[O-])cc3c(=O)n1CCCCl)C2=O`, the GI50 was over 50 µM in the experiment with UACC-257 melanoma; 1.5 µM in the experiment with CCRF-CEM leukemia; over 50 µM in the experiment with K-562 leukemia; 3.69 µM in the experiment with RPMI-8226 leukemia; 0.685 µM with NCI-H522 lung; 1.13 µM in the experiment on CAKI-1 renal. The GI50 in the experiment with T-47D breast is over 50 µM. Besides, the TGI in the experiment on UACC-257 melanoma was over 50 µM; in the experiment on CCRF-CEM leukemia it was over 50 µM; in the experiment on K-562 leukemia it was over 50 µM; in the experiment with RPMI-8226 leukemia, over 50 µM; in the experiment with NCI-H522 lung it was over 50 µM; in the experiment with CAKI-1 renal, 24.1 µM. Further, the TGI with T-47D breast was over 50 µM.

`O=S(=O)(O)c1ccc(-c2nnc(-c3ccccn3)nc2-c2ccc(S(=O)(=O)O)o2)o1`: the TGI with OVCAR-4 ovarian, with K-562 leukemia, in the experiment with RPMI-8226 leukemia, in the experiment on NCI-H522 lung, with CAKI-1 renal and in the experiment on T-47D breast was over 100 µM in each case.

For `Cc1cc(C2=NNC(=O)Cc3cc4c(cc32)OCCO4)cc(C)c1N`, the GI50 with OVCAR-4 ovarian was 6.4 µM; with NCI-H522 lung, 1.24 µM; with CAKI-1 renal it was 0.901 µM; with T-47D breast, 4.41 µM. Moreover, the TGI with OVCAR-4 ovarian is over 100 µM; in the experiment with NCI-H522 lung, 6.19 µM; in the experiment with CAKI-1 renal it was 7.66 µM; in the experiment on T-47D breast it was over 100 µM.

As for `CN1CCN(Cc2ccc(NC(=O)c3cncc(C#Cc4cncc5ncccc45)c3)cc2C(F)(F)F)CC1`, the GI50 with UACC-257 melanoma was 2.47 µM; in the experiment on CCRF-CEM leukemia it was 3.27 µM; with RPMI-8226 leukemia it was 3.59 µM; in the experiment with NCI-H522 lung, 3.11 µM; in the experiment on CAKI-1 renal, 4.74 µM; in the experiment with T-47D breast, 10.9 µM. The TGI with UACC-257 melanoma came to 12.4 µM; in the experiment with CCRF-CEM leukemia, 34.8 µM; with K-562 leukemia, 11.4 µM; in the experiment with RPMI-8226 leukemia, 22.2 µM; in the experiment on NCI-H522 lung, 17 µM; in the experiment with CAKI-1 renal, 16.4 µM. The same compound came in with a TGI in the experiment with T-47D breast of 27.3 µM.

As for `CN=C(NC#N)NCCSCc1nc[nH]c1C`, the TGI with OVCAR-4 ovarian, in the experiment with UACC-257 melanoma, in the experiment with CCRF-CEM leukemia, with K-562 leukemia, with NCI-H522 lung and in the experiment with CAKI-1 renal was over 100 µM throughout. For the same compound, the TGI in the experiment with T-47D breast is over 100 µM.

For the compound `CC(=O)c1c(C)n(C)c2c1nnc1ccccc12`, the TGI in the experiment with OVCAR-4 ovarian, with UACC-257 melanoma, in the experiment on CCRF-CEM leukemia, in the experiment on RPMI-8226 leukemia, in the experiment on NCI-H522 lung and in the experiment with CAKI-1 renal was over 100 µM in each case. This compound also returned a TGI with T-47D breast of over 100 µM.
